Activity calls are given as the source filed them. No cut-off for these calls is given here.
Legend:
[1] = molecular target: Acetylcholinesterase (Electrophorus electricus, UniProt O42275); assay: Inhibition of electric eel AChE using acetylthiocholine iodide as substrate incubated for 15 mins by Ellman's method; assay type: ADME
[2] = molecular target: Cholinesterase (Equus caballus, UniProt P81908); assay: Inhibition of equine serum BuChE using butyrylthiocholine iodide as substrate incubated for 15 mins by Ellman's method
[3] = Selectivity index, ratio of IC50 for electric eel AChE to IC50 for equine serum BuChE
[4] = molecular target: T1, Amine oxidase [flavin-containing] A (Homo sapiens, UniProt P21397); assay: Inhibition of recombinant human MAO-A expressed in baculovirus infected BTI insect cells at 10 uM incubated for 30 mins using kynuramine as substrate by fluorescence based assay relative to control; settings: 0.5 h
T1 sequence (P21397 whole entry): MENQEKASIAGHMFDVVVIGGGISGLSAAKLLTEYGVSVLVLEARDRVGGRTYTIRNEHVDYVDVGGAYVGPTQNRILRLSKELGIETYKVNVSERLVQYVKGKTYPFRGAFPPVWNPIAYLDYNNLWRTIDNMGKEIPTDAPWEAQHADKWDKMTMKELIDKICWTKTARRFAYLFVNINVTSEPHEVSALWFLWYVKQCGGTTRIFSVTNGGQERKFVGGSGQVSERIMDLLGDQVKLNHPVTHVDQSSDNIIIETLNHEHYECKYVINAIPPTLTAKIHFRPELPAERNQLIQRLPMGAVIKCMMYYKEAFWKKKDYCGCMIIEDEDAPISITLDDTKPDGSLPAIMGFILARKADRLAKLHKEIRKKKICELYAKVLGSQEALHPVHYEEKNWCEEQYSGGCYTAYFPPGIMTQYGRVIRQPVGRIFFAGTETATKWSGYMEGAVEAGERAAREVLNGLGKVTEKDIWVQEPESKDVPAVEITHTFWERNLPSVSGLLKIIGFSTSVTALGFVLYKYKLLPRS

[5] = molecular target: T2, Amine oxidase [flavin-containing] B (Homo sapiens, UniProt P27338); assay: Inhibition of recombinant human MAO-B expressed in baculovirus infected BTI insect cells using kynuramine as substrate incubated for 30 mins by fluorescence based assay; assay type: cell-based
T2 sequence (P27338 whole entry): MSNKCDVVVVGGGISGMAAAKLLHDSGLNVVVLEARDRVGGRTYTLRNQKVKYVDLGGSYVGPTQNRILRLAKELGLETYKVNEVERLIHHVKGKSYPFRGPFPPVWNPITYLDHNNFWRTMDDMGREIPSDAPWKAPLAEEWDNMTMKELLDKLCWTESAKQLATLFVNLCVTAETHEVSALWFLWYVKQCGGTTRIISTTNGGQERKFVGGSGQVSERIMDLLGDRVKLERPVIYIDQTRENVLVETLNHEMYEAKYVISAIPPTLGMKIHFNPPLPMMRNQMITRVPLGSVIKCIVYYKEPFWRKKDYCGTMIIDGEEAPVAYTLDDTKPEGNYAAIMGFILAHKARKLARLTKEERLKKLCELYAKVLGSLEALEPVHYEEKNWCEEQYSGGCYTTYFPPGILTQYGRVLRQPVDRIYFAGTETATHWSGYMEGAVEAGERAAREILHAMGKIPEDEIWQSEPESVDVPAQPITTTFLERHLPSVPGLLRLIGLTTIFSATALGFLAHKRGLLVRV

[6] = Antioxidant activity assessed as AAPH radical scavenging activity preincubated for 15 mins followed by AAPH addition measured every min for 90 mins by ORAC-FL assay relative to trolox; assay type: functional
[7] = molecular target: Amyloid-beta precursor protein (Homo sapiens) (UniProt P05067); assay: Inhibition of self-induced aggregation of amyloid beta (1 to 42) (unknown origin) at 25 uM incubated for 24 hrs by thioflavin-T fluorescence assay relative to control
[8] = Permeability of compound at 100 ug/ml measured after dilution with PBS/EtOH (70:30) at pH 7.4 after 18 hrs by PAMPA-BBB assay
[9] = molecular target: Cholinesterase (Equus caballus) (UniProt P81908); assay: Reversible inhibition of equine serum BuChE assessed as enzyme activity at 0.1xIC50 using butyrylthiocholine iodide as substrate measured after dilution by Ellman's method relative to control; set-up: scale not given: the % may be the effect or the level left
[10] = molecular target: Cholinesterase (Equus caballus) (UniProt P81908); assay: Reversible inhibition of equine serum BuChE assessed as enzyme activity at 1xIC50 using butyrylthiocholine iodide as substrate measured after dilution by Ellman's method relative to control; set-up: scale not given: the % may be the effect or the level left
[11] = molecular target: Cholinesterase (Equus caballus) (UniProt P81908); assay: Reversible inhibition of equine serum BuChE assessed as enzyme activity at 0.1xIC50 using butyrylthiocholine iodide as substrate measured at 240 mins after dilution by Ellman's method relative to control; set-up: scale not given: the % may be the effect or the level left
[12] = Inhibition of Cu2+ induced human amyloid beta (1 to 42) aggregation at 25 uM after 24 hrs by thioflavin-T fluorescence assay relative to control
[13] = Disaggregation of Cu2+ induced preformed fibrils of amyloid beta (1 to 42) (unknown origin) at 25 uM after 24 hrs by transmission electron microscopy relative to control
[14] = Metal chelating activity assessed as compound-Cu2+ complex formation by measuring shift in maximum absorption from 361 nm to 418 nm at 37.5 uM after 30 mins by UV-visible spectrometry method
[15] = Metal chelating activity assessed as compound-Al3+ complex formation by measuring shift in maximum absorption from 361 nm to 426 nm at 37.5 uM after 30 mins by UV-visible spectrometry method
[16] = Metal chelating activity assessed as compound-Zn2+ complex formation assessed as effect on maximum absorption shift at 37.5 uM after 30 mins by UV-visible spectrometry method
[17] = Metal chelating activity assessed as compound-Fe2+ complex formation assessed as effect on maximum absorption shift at 37.5 uM after 30 mins by UV-visible spectrometry method
[18] = Metal chelating activity assessed as compound-Cu+ complex formation assessed as effect on maximum absorption shift at 37.5 uM after 30 mins by UV-visible spectrometry method
[19] = Metal chelating activity assessed as compound-Fe3+ complex formation assessed as effect on maximum absorption shift at 37.5 uM after 30 mins by UV-visible spectrometry method
[20] = tested on: PC-12; assay: Neuroprotective activity against H2O2-induced cell death in rat PC12 cells assessed as cell viability at 10 uM preincubated for 24 hrs followed by H2O2 stimulation for 2 hrs followed by replacement of fresh medium and measured after 24 hrs by MTT assay (reference value: 51.3%); assay type: functional; settings: read-out: Activity
[21] = tested on: PC-12; assay: Neuroprotective activity against H2O2-induced cell death in rat PC12 cells assessed as cell viability at 1 uM preincubated for 24 hrs followed by H2O2 stimulation for 2 hrs followed by replacement of fresh medium and measured after 24 hrs by MTT assay (reference value: 51.3%); assay type: functional; settings: read-out: Activity
[22] = tested on: PC-12; assay: Neuroprotective activity against H2O2-induced cell death in rat PC12 cells assessed as increase in cell viability preincubated for 24 hrs followed by H2O2 stimulation for 2 hrs followed by replacement of fresh medium and measured after 24 hrs by MTT assay; assay type: functional, cell-based
[23] = Acute toxicity in Kunming mouse assessed as mortality at 250 to 1000 mg/kg, po measured for first 4 hrs through 14 days; assay type: organism-based; settings: in vivo
[24] = tested on: Mus musculus; assay: Antialzheimer activity in po dosed scopolamine-induced memory impairment Kunming mouse model assessed as increase in latency time treated with compound 1 hr before training trial followed by 30 mins later administration with scopolamine and measured 24 hrs after training trial by step-down passive avoidance test; assay type: functional, organism-based
[25] = tested on: Mus musculus; assay: Antialzheimer activity in scopolamine-induced memory impairment Kunming mouse model assessed as latency time at 16.8 mg/kg po treated with compound 1 hr before training trial followed by 30 mins later administration with scopolamine and measured 24 hrs after training trial by step-down passive avoidance test (reference value: 70.4 secs); assay type: functional
[26] = tested on: PC-12; assay: Cytotoxicity against rat PC12 cells assessed as cell viability at 0.1 to 100 uM incubated for 24 hrs by MTT assay; assay type: cell-based; settings: pc-12, 24 h
[27] = Acute toxicity in Kunming mouse assessed as abnormal behaviour at 250 to 1000 mg/kg, po measured for first 4 hrs through 14 days; assay type: organism-based; settings: in vivo
[28] = molecular target: T1, Amine oxidase [flavin-containing] A; assay: Inhibition of recombinant human MAO-A expressed in baculovirus infected BTI insect cells using kynuramine as substrate incubated for 30 mins by fluorescence based assay
[29] = species: Homo sapiens; assay: Selectivity index, ratio of IC50 for recombinant human MAO-A expressed in baculovirus infected BTI insect cells to IC50 for recombinant human MAO-B expressed in baculovirus infected BTI insect cells

Amyloid-beta precursor protein (Homo sapiens), sequence (P05067 whole entry): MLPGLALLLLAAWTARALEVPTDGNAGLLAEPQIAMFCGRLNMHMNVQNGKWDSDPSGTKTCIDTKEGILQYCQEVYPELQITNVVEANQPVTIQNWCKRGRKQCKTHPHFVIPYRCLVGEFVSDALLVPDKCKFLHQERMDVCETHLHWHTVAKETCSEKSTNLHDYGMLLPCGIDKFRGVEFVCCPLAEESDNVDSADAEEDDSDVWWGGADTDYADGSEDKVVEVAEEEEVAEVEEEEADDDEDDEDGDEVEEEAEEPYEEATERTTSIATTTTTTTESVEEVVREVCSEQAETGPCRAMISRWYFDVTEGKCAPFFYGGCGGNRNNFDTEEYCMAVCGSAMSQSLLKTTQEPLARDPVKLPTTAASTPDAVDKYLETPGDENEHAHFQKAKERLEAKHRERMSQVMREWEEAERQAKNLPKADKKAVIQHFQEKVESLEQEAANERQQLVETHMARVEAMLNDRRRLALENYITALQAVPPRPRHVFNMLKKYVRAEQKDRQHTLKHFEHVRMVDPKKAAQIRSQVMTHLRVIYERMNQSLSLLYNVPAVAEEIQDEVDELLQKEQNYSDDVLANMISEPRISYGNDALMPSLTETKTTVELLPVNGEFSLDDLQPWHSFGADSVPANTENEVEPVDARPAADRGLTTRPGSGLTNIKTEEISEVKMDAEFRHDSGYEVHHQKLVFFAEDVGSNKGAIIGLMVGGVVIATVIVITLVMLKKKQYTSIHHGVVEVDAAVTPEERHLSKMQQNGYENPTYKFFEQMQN
Cholinesterase, sequence (P81908 whole entry): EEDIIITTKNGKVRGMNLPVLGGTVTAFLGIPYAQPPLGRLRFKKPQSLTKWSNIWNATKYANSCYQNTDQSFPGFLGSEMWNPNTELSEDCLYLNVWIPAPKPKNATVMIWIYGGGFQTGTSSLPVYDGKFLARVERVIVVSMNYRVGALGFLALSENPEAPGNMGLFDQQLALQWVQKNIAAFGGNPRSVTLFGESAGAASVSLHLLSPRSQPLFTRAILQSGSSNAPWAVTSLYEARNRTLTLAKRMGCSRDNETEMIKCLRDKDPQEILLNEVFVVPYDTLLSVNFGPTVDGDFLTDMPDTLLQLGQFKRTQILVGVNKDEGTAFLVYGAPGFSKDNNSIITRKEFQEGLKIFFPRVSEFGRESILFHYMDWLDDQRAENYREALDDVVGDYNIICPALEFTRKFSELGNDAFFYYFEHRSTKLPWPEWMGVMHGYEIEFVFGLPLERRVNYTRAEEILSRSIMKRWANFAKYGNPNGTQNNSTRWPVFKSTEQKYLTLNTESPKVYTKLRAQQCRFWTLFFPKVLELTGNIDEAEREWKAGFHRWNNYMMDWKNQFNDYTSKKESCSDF
Cholinesterase (Equus caballus), sequence (P81908 whole entry): as above
Acetylcholinesterase, sequence (O42275 whole entry): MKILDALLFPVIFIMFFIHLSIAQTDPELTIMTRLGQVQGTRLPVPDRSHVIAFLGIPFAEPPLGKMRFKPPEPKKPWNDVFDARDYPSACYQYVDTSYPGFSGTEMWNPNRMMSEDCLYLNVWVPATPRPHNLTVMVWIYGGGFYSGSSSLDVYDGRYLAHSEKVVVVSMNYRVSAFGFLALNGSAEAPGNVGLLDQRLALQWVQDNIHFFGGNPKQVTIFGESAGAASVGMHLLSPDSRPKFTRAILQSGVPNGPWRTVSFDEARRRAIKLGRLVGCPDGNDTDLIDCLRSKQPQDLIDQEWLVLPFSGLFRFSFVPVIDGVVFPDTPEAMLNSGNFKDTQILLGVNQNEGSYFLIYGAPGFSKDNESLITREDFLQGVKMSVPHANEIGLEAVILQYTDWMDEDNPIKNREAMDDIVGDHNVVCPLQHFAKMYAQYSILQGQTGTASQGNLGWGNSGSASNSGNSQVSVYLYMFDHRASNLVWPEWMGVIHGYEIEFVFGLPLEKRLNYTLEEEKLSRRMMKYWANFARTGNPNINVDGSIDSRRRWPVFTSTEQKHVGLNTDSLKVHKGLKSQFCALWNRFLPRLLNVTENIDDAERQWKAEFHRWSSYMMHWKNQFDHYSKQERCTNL

| SMILES | IC50 [1] [µM] | IC50 [2] [µM] | Ratio IC50 [3] | inhibition at 10 µM [4] [%] | IC50 [5] [µM] | Activity [6] [µMequiv/µM] | inhibition [7] [%] | Papp at 18 h, 100 ug/ml [8] [×10⁻⁶ cm/s] | IC50 [28] [µM] | Ratio IC50 [29] | further results |
| --- | --- | --- | --- | --- | --- | --- | --- | --- | --- | --- | --- |
| CN(C)c1ccc(/C=C/C(=O)c2ccc(OCCCCCCN3CCc4ccccc4C3)cc2O)cc1 | 6.6 | 10.4 | 0.6 | < 5 | 7.1 | 1.6 | 97.5 | 13.2 |  |  |  |
| O=C(/C=C/c1cccc(OCCCCN2CCC(Cc3ccccc3)CC2)c1)c1ccccc1O | 15.3 | 4.9 | 3.1 | < 5 | 6.4 | 1.2 | 71.4 | 12.3 |  |  |  |
| O=C(/C=C/c1cccc(OCCCCN2CCc3ccccc3C2)c1)c1ccccc1O | 16.2 | 2.6 | 6.2 | < 5 | 5.3 | 1.2 | 70.2 | 11.3 |  |  | Activity [9]: 60.8%; Activity [10]: 52.6%; Activity [11]: 104%; inhibition [12]: 80.7%; inhibition [13]: 73.5%; Activity [14]: Active; Activity [15]: Active; Activity [16]: inactive; Activity [17]: inactive; Activity [18]: inactive; Activity [19]: inactive; viability at 10 µM [20]: 82.6%; viability at 1 µM [21]: 61.9%; Activity [22]: Dose-dependent effect; Activity [23]: Non-Toxic; Activity [24]: Dose-dependent effect; Time [25]: 126.4 s; Activity [26]: Non-Toxic; Activity [27]: Non-Toxic |
| COc1cc2c(cc1OC)C(=O)C(CC1CCN(Cc3ccccc3)CC1)C2 (centres undefined) |  |  |  |  |  |  |  |  |  |  | Activity [9]: 60.5%; Activity [10]: 50.9%; Activity [11]: 127% |
| O=C(/C=C/c1ccc(F)cc1)c1ccc(OCCCN2CCc3ccccc3C2)cc1O | 22.3 | 13.4 | 1.7 |  | 12.6 | 0.92 | 72.4 | 12.6 | 26.1 | 2.1 |  |
| O=C(/C=C/c1cccc(OCCCCCCN2CCc3ccccc3C2)c1)c1ccccc1O | 27.1 | 4.1 | 6.6 |  | 6.7 | 1.1 | 65.6 | 11.8 | 31.5 | 4.7 |  |
| O=C(CCc1cccc(OCCCCN2CCc3ccccc3C2)c1)c1ccccc1O | 23.1 | 0.64 | 36 | < 5 | 26.7 | 1.4 |  | 16.8 |  |  |  |
| COc1cc(/C=C/C(=O)CC(=O)/C=C/c2ccc(O)c(OC)c2)ccc1O |  |  |  |  |  |  |  |  |  |  | inhibition [12]: 76.5%; inhibition [13]: 56.5% |
| O=C(/C=C/c1cccc(OCCCCCN2CCc3ccccc3C2)c1)c1ccccc1O | 18.6 | 3.7 | 7.2 | < 5 | 4.8 | 1.2 | 69.7 | 10 |  |  |  |
| O=C(/C=C/c1cccc(OCCCN2CCc3ccccc3C2)c1)c1ccccc1O | 17.6 | 11.2 | 1.6 |  | 10.7 | 1.1 | 65.9 | 10.2 | 29.8 | 2.8 |  |
| COc1ccccc1/C=C/C(=O)c1ccc(OCCCCN2CCc3ccccc3C2)cc1O | 8.3 | 5.2 | 1.6 |  | 9.5 | 1.5 | 83.1 | 13.1 | 30.1 | 2.4 |  |

— ChEMBL document CHEMBL4364308, “Design, synthesis, in-silico and biological evaluation of novel chalcone derivatives as multi-function agents for the treatment of Alzheimer's disease” (Eur J Med Chem, 2019)
